Article PMC11111408, “Concurrent inhibition of oncogenic and wild-type RAS-GTP for cancer therapy” (Nature, 2024)
pEC50, pKd: −log10 of the molar value. Where “and” joins values, the source holds several entries; their conditions need not be identical. Identical values can stand only once.

What was measured:
KRAS^G12S = KRAS^G12S (Homo sapiens, UniProt P01116+P62937, G12S); assay: Cellular RAS–RAF (CRAF RBD) disruption, nano-BRET in U2OS cells; format: cell-based; design: expressed in transfected cells; host or cells: U2OS PPIA-KO; details: (95% CI)
Excerpt: (§1) KRAS4B, or other small GTPases, containing the indicated mutations were cloned in pNLF-N or pHTN plasmids for expression with an N-terminal nanoluciferase or HaloTag fusion, respectively. […] The following day, the cells were collected by Trypsin and reseeded in a white tissue culture-treated 96-well plate in OptiMem phenol red-free medium (Gibco) containing 4% FBS and a 1:1,000 dilution of NanoBRET 618 HaloTag ligand (Promega). For endpoint concentration response curves, vivazine nanoluciferase substrate was added to 1× concentration in OptiMem phenol red-free medium with 4% FBS. Varying concentrations of inhibitor were added and incubated for 1 or 4 h before the nano-BRET signal was measured on a Perkin Elmer Envision plate reader. For kinetic assays, endurazine nanoluciferase substrate was used in place of vivazine, and the plate was placed in a Cytation5 multi-mode reader pre-equilibrated to 37 °C and 5% CO2.

KRAS^G12A = KRAS^G12A (Homo sapiens, UniProt P01116+P62937, G12A); assay: as above; format: cell-based; design: expressed in transfected cells; host or cells: U2OS or U2OS PPIA-KO; details: (95% CI)
Excerpt: as §1

KRAS^Q61H = KRAS^Q61H (Homo sapiens, UniProt P01116+P62937, Q61H); assay: as above; format: cell-based; design: expressed in transfected cells; host or cells: U2OS or U2OS PPIA-KO; details: (95% CI)
Excerpt: as §1

KRAS–PI3Kα [1] = biological target: T1, KRAS–PI3Kα (Homo sapiens, UniProt P01116, G12C); assay: Cellular nano-BRET, full length PI3Kα binding to KRAS G12C, G12D, G12V; format: cell-based; details: KRAS G12C, in the presence of CYPA, single replicates;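 note: U2OS cells expressing KRAS4B mutants carrying N-terminal nanoluciferase or HaloTag fusions, with nano-BRET signal measured after inhibitor exposure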
T1 construct: expressed in transfected cells; host or cells: U2OS

KRAS–PI3Kα [2] = biological target: T2, KRAS–PI3Kα (Homo sapiens, UniProt P01116, G12V); assay: as above; format: cell-based; details: KRAS G12V, in the presence of CYPA, single replicates
T2 construct: expressed in transfected cells; host or cells: U2OS

KRAS–PI3Kα [3] = biological target: T3, KRAS–PI3Kα (Homo sapiens, UniProt P01116, G12D); assay: as above; format: cell-based; details: KRAS G12D, in the presence of CYPA, single replicates
T3 construct: expressed in transfected cells; host or cells: U2OS

KRAS^G13C = KRAS^G13C (Homo sapiens, UniProt P01116+P62937, G13C); assay: Cellular RAS–CYPA binding (tri-complex formation), nano-BRET in U2OS cells; format: cell-based; design: expressed in transfected cells; host or cells: U2OS; details: (95% CI)
Excerpt: as §1

KRAS^G12C [4] = biological target: T4, KRAS^G12C (Homo sapiens, UniProt P01116+P62937, G12C); assay: as above; format: cell-based; design: expressed in transfected cells; host or cells: U2OS; details: (95% CI)
Excerpt: as §1

KRAS^G12R = KRAS^G12R (Homo sapiens, UniProt P01116+P62937, G12R); assay: as above; format: cell-based; design: expressed in transfected cells; host or cells: U2OS; details: (95% CI)
Excerpt: as §1

KRAS WT = KRAS WT (Homo sapiens, UniProt P01116+P62937); assay: as above; format: cell-based; design: expressed in transfected cells; host or cells: U2OS; details: (95% CI)
Excerpt: as §1

KRAS^G12D = KRAS^G12D (Homo sapiens, UniProt P01116+P62937, G12D); assay: as above; format: cell-based; design: expressed in transfected cells; host or cells: U2OS; details: (95% CI)
Excerpt: as §1

HRAS WT = HRAS WT (Homo sapiens, UniProt P01112+P62937); assay: RAS binding affinity of compound-bound CYPA (Kd2), SPR; details: steady state SPR, (95% CI)
KRAS^G12C [5] = biological target: T4, KRAS^G12C; assay: as above; design: His6-TEV (N); made in house; host or cells: BL21(DE3) Escherichia coli; details: steady state SPR, (95% CI)
[6] = tested on: Pa16C cells expressing MEK1 mutants; assay: Proliferation (Calcein AM) of Pa16C cells expressing MEK1 mutants; format: cell-based, human

## CCn1c(-c2cc(N3CCN(C4CC4)CC3)cnc2[C@H](C)OC)c2c3cc(ccc31)-c1csc(n1)C[C@H](NC(=O)[C@H]1[C@@H]3COC[C@@H]31)C(=O)N1CCC[C@H](N1)C(=O)OCC(C)(C)C2 [RMC-7977]
KRAS^G12S
  pEC50: 7.82
KRAS^G12A
  pEC50: 7.52
KRAS^Q61H
  pEC50: 7.76
KRAS–PI3Kα [1]; RMC-7977 4.115 nM
  Cellular nano-BRET of PI3K⍺ (full-length) binding to KRAS: 18.9 and 18.4569 and 18.8341 and 18.1839 and 17.8374 and 17.916
KRAS–PI3Kα [1]; RMC-7977 12.346 nM
  Cellular nano-BRET of PI3K⍺ (full-length) binding to KRAS: 15.8416 and 16.2344 and 15.8041 and 16.4517 and 15.615 and 15.4215
KRAS–PI3Kα [1]; RMC-7977 37.037 nM
  Cellular nano-BRET of PI3K⍺ (full-length) binding to KRAS: 13.5244 and 14.2699 and 13.7436 and 13.7375 and 14.0918 and 13.7581
KRAS–PI3Kα [1]; RMC-7977 111.111 nM
  Cellular nano-BRET of PI3K⍺ (full-length) binding to KRAS: 13.3801 and 13.6296 and 13.7851 and 13.3968 and 13.4702 and 13.5585
KRAS–PI3Kα [1]; RMC-7977 333.333 nM
  Cellular nano-BRET of PI3K⍺ (full-length) binding to KRAS: 13.479 and 13.457 and 13.6054 and 13.4472 and 13.3596 and 13.441
KRAS–PI3Kα [1]; RMC-7977 1000.000 nM
  Cellular nano-BRET of PI3K⍺ (full-length) binding to KRAS: 13.0371 and 13.4964 and 13.2247 and 13.6424 and 13.499 and 13.5185
KRAS–PI3Kα [2]; RMC-7977 4.115 nM
  Cellular nano-BRET of PI3K⍺ (full-length) binding to KRAS: 19.5671 and 18.6162 and 18.8909 and 19.2958
KRAS–PI3Kα [2]; RMC-7977 12.346 nM
  Cellular nano-BRET of PI3K⍺ (full-length) binding to KRAS: 17.0686 and 16.4926 and 17.3848 and 16.3061 and 17.5986 and 16.6607
KRAS–PI3Kα [2]; RMC-7977 37.037 nM
  Cellular nano-BRET of PI3K⍺ (full-length) binding to KRAS: 14.0491 and 14.079 and 13.7071 and 13.4685 and 14.6716 and 13.9571
KRAS–PI3Kα [2]; RMC-7977 111.111 nM
  Cellular nano-BRET of PI3K⍺ (full-length) binding to KRAS: 13.3096 and 12.8133 and 13.2135 and 13.4943 and 13.3044 and 13.1946
KRAS–PI3Kα [2]; RMC-7977 333.333 nM
  Cellular nano-BRET of PI3K⍺ (full-length) binding to KRAS: 13.0302 and 13.2252 and 12.7334 and 12.2876 and 12.5409 and 12.8603
KRAS–PI3Kα [2]; RMC-7977 1000.000 nM
  Cellular nano-BRET of PI3K⍺ (full-length) binding to KRAS: 12.5669 and 12.7724 and 12.7825 and 12.8803 and 12.1527 and 13.0533
KRAS–PI3Kα [3]; RMC-7977 12.346 nM
  Cellular nano-BRET of PI3K⍺ (full-length) binding to KRAS: 15.8391 and 14.8964 and 15.0849 and 14.7399 and 14.2306 and 14.9536
KRAS–PI3Kα [3]; RMC-7977 37.037 nM
  Cellular nano-BRET of PI3K⍺ (full-length) binding to KRAS: 13.3166 and 13.8897 and 13.2531 and 13.6566 and 13.0465 and 13.0111
KRAS–PI3Kα [3]; RMC-7977 111.111 nM
  Cellular nano-BRET of PI3K⍺ (full-length) binding to KRAS: 12.9631 and 12.8542 (2×) and 12.751 and 12.7145 and 12.5362
KRAS–PI3Kα [3]; RMC-7977 333.333 nM
  Cellular nano-BRET of PI3K⍺ (full-length) binding to KRAS: 12.4418 and 12.5115 and 12.0796 and 12.2384 and 12.3217 and 12.5478
KRAS–PI3Kα [3]; RMC-7977 1000.000 nM
  Cellular nano-BRET of PI3K⍺ (full-length) binding to KRAS: 12.9103 and 12.8341 and 12.4299 and 12.848 and 12.6569 and 12.4165
KRAS^G13C
  pEC50: 8.43
KRAS^G12C [4]
  pEC50: 8.90
KRAS^G12R
  pEC50: 8.54
KRAS WT
  pEC50: 8.04
KRAS^G12D
  pEC50: 8.57
HRAS WT
  pKd: 7.02
KRAS^G12C [5]
  pKd: 7.40
[6]; MEK1E102-I103del, inhibitor 0.010 nM
  Proliferation of Pa16C cells expressing MEK1 mutant constructs: 100
[6]; MEK1E102-I103del, inhibitor 0.046 nM
  Proliferation of Pa16C cells expressing MEK1 mutant constructs: 104.2 and 107.7 and 121 and 88.4
[6]; MEK1E102-I103del, inhibitor 11.111 nM
  Proliferation of Pa16C cells expressing MEK1 mutant constructs: 80.9 and 75.7 and 68.8 and 87.1
[6]; MEK1E102-I103del, inhibitor 33.333 nM
  Proliferation of Pa16C cells expressing MEK1 mutant constructs: 72.5 and 68.1 and 61 and 93
[6]; MEK1E102-I103del, inhibitor 100.000 nM
  Proliferation of Pa16C cells expressing MEK1 mutant constructs: 65.9 and 65.1 and 49.1 and 77.1
[6]; MEK1E102-I103del, inhibitor 300.000 nM
  Proliferation of Pa16C cells expressing MEK1 mutant constructs: 58.5 and 56.3 and 42.3 and 60.5
[6]; MEK1K57N, inhibitor 0.010 nM
  Proliferation of Pa16C cells expressing MEK1 mutant constructs: 100
[6]; MEK1K57N, inhibitor 0.046 nM
  Proliferation of Pa16C cells expressing MEK1 mutant constructs: 132.7 and 110.5 and 108.3
[6]; MEK1K57N, inhibitor 11.111 nM
  Proliferation of Pa16C cells expressing MEK1 mutant constructs: 106.5 and 108.3 and 128.9
[6]; MEK1K57N, inhibitor 33.333 nM
  Proliferation of Pa16C cells expressing MEK1 mutant constructs: 101 and 88.9 and 126.9
[6]; MEK1K57N, inhibitor 100.000 nM
  Proliferation of Pa16C cells expressing MEK1 mutant constructs: 86.3 and 76.5 and 119.3
[6]; MEK1K57N, inhibitor 300.000 nM
  Proliferation of Pa16C cells expressing MEK1 mutant constructs: 68.3 and 60.7 and 90.3
[6]; MEK1Q56P, inhibitor 0.010 nM
  Proliferation of Pa16C cells expressing MEK1 mutant constructs: 100
[6]; MEK1Q56P, inhibitor 0.046 nM
  Proliferation of Pa16C cells expressing MEK1 mutant constructs: 111.1 and 128.1 and 116.5
[6]; MEK1Q56P, inhibitor 11.111 nM
  Proliferation of Pa16C cells expressing MEK1 mutant constructs: 109 and 97.6 and 77.9
[6]; MEK1Q56P, inhibitor 33.333 nM
  Proliferation of Pa16C cells expressing MEK1 mutant constructs: 99.6 and 83.8 and 68
[6]; MEK1Q56P, inhibitor 100.000 nM
  Proliferation of Pa16C cells expressing MEK1 mutant constructs: 81.8 and 65.9 and 54.2
[6]; MEK1Q56P, inhibitor 300.000 nM
  Proliferation of Pa16C cells expressing MEK1 mutant constructs: 72.6 and 57.1 and 47.4
[6]; MEK1S218D/S222D, inhibitor 0.010 nM
  Proliferation of Pa16C cells expressing MEK1 mutant constructs: 100
[6]; MEK1S218D/S222D, inhibitor 0.046 nM
  Proliferation of Pa16C cells expressing MEK1 mutant constructs: 98 and 111.5 and 106.4 and 100.9
[6]; MEK1S218D/S222D, inhibitor 11.111 nM
  Proliferation of Pa16C cells expressing MEK1 mutant constructs: 89.6 and 94.3 and 98.3 and 90.9
[6]; MEK1S218D/S222D, inhibitor 33.333 nM
  Proliferation of Pa16C cells expressing MEK1 mutant constructs: 86.8 and 90.6 and 104.9 and 86
[6]; MEK1S218D/S222D, inhibitor 100.000 nM
  Proliferation of Pa16C cells expressing MEK1 mutant constructs: 81.6 and 87.3 and 91 and 73.6
[6]; MEK1S218D/S222D, inhibitor 300.000 nM
  Proliferation of Pa16C cells expressing MEK1 mutant constructs: 72.8 and 76 and 71.6 and 55.5
[6]; MEK1WT, inhibitor 0.010 nM
  Proliferation of Pa16C cells expressing MEK1 mutant constructs: 100
[6]; MEK1WT, inhibitor 0.046 nM
  Proliferation of Pa16C cells expressing MEK1 mutant constructs: 97.2 and 123.9 and 122.4 and 107.7
[6]; MEK1WT, inhibitor 11.111 nM
  Proliferation of Pa16C cells expressing MEK1 mutant constructs: 34.9 and 22.9 and 31.4 and 22.8
[6]; MEK1WT, inhibitor 33.333 nM
  Proliferation of Pa16C cells expressing MEK1 mutant constructs: 19.9 and 13.1 and 14.8 and 12.8
[6]; MEK1WT, inhibitor 100.000 nM
  Proliferation of Pa16C cells expressing MEK1 mutant constructs: 14.4 and 9 and 9.5 and 10.2
[6]; MEK1WT, inhibitor 300.000 nM
  Proliferation of Pa16C cells expressing MEK1 mutant constructs: 9.7 and 8 and 8.2 and 8.6
